In patent publication US12344610B2, “APOL1 inhibitors and methods of use” (Maze Therapeutics, Inc., priority 2022, dated 2025):
Like-named read-outs stand apart in the source and are kept apart here.

Assays:
Type in all cases: cell-based
[1] = tested on: HEK293 cells overexpressing APOL1 G2; test: APOL1 G2 HEK293 cell rescue assay (reversal of cell death caused by overexpression of APOL1); details: geometric mean of at least 2 assay runs, † = single assay run
Procedure, shortened: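 EC50 is the half-maximal effective concentration for reversing cell death driven by APOL1 G2 overexpression in HEK293 cells. Reported as geometric mean of at least 2 runs on separate days, each run averaging duplicate wells per plate; some values from a single run.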

[2] = tested on: HEK293 clonal cell line overexpressing APOL1 G1; test: APOL1 G1 HEK293 cell rescue assay (Example B3); details: geometric mean of at least 2 runs, † = single run, ¥ = concentration at 50% rescue estimated (no sigmoidal curve)
Procedure, shortened: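 HEK293 clonal line overexpressing APOL1 G1; EC50 is half-maximal reversal of APOL1-induced cell death. Values are the geometric mean of ≥2 runs on separate days, each run the average of duplicate wells. Where no sigmoidal curve could be fitted, the concentration giving 50% rescue was estimated.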

[3] = tested on: Trypanosoma brucei Lister 427 VSG221 with APOL1 G0 recombinant protein; test: APOL1 G0 trypanosome cell rescue assay (Example B5); details: geometric mean of at least 2 assay runs, † = single assay run
Experimental: (§1) APOL1 G0/G1/G2 viability assay for measurement of cytotoxicity reversal by compound in trypanosomes (APOL1 G0/G1/G2 trypanosome cell rescue assay).
(§2) APOL1 protein expression and purification. The mature from of APOL1 proteins, residues 28-398, were expressed from a pET28a vector with an N-terminal His-tag and TEV cleavage site. Proteins were expressed in Escherichia coli BL21-CodonPlus (DE3)-RIPL cells. Liter cultures of terrific broth were grown at 37° C. until an OD600 of ˜0.8 was reached and then induced with isopropyl β-D-1-thiogalactopyranoside (IPTG; final concentration of 500 μM). Afterwards, cultures were grown for 3 hours at 37° C. For protein purification, cell pellets were resuspended in lysis buffer (50 mM Tris, pH 8.5, 5 mM EDTA, 0.5 mM DTT, 0.5 mM PMSF) supplemented with a cocktail of protease inhibitors. Cells were lysed by sonication, centrifuged, and the resulting pellet was collected. The homogenized pellet was resuspended in wash buffer (50 mM Tris, pH 8.5, 0.5 M NaCl, 5 mM EDTA, 0.5 mM DTT, 0.5 mM PMSF, protease inhibitor cocktail) and collected by centrifugation. Inclusion body dissolution was then conducted as previously reported (PNAS 112(9) (2015) 2894-2899; www.pnas.org/cgi/doi/10.1073/pnas.1421953112; herein incorporated by reference in its entirety). The solubilized APOL1 protein was applied to a nickel column (HisTrap, GE Life Sciences) preequilibrated in buffer A (50 mM Tris, pH 8.5, 0.15 M NaCl, 1% zwittergent 3-14, protease inhibitor cocktail). The resin was washed with buffer B (50 mM Tris, pH 8.5, 0.15 M NaCl, 0.1% DDM) and TEV cleavage was conducted on column overnight. Afterwards, the column was washed with buffer B, followed by His-washing buffer (50 mM Tris, pH 8.5, 0.15 M NaCl, 0.1% DDM, 10 mM imidazole). The protein was then removed from the resin using His-elution buffer (50 mM Tris, pH 8.5, 0.15 M NaCl, 0.1% DDM, 250 mM imidazole). The sample was further purified by size exclusion chromatography using a Superdex 200 Increase column (GE Life Sciences) in 50 mM Tris, pH 8.5, 0.15 M NaCl, and 0.1% DDM buffer. All APOL1 proteins (G0, G1, and G2) were generated at Viva Biotech (Shanghai) Ltd.
(§3) Modified HMI-9 media preparation (https://tryps.rockefeller.edu/trypsru2_culture_media_preparation.html; herein incorporated by reference in its entirety). Trypanosomes were cultured in modified HMI-9 media consisting of IMDM (ThermoFisher, 12440053), 10% heat-inactivated FBS (Gibco, 10082-147), 10% Serum Plus (Sigma-Aldrich, 14008C), 1×HMI-9 supplement stock, and 1% hypoxanthine stock. The 10×HMI-9 supplement stock was made by dissolving 280 mg bathocuproine disulfonic acid (Sigma-Aldrich, 146625), 1820 mg cysteine (add after bathocuproine) (Sigma-Aldrich, 30089), 1100 mg pyruvic acid (Sigma-Aldrich, 107360), 100 mg uracil (Sigma-Aldrich, U0750), 100 mg cytosine (Sigma-Aldrich, C3506) and 140 μL 2-mercaptoethanol (Sigma-Aldrich, M3148) in 1000 mL of water. The resulting solution was aliquoted and stored at −20° C. The hypoxanthine stock was made by dissolving 4 g of NaOH into 1000 mL of water. Afterwards, 13.6 g hypoxanthine (Sigma-Aldrich, H9377) was added to this mixture. The resulting solution was aliquoted and stored at −20° C.
(§4) Assay Setup. Trypanosoma brucei Lister 427 VSG221 (ATCC, PRA-382) cells were cultured in modified HMI-9 media. All experiments were performed in 384-well, white, solid bottom, tissue culture treated plates (Greiner, 781080). Assay ready plates were generated with duplicate 11-point compound dilution series that consisted of 2-fold stepwise dilutions (0.4% DMSO final). To each well, was added 20 μL of 2 μg/mL of APOL1 G0, G1, or G2 recombinant protein in modified HMI-9 media using a MultiDrop Combi (final APOL1 protein concentration=[…]). Trypanosomes were counted using a hemacytometer and diluted in modified HMI-9 media to a concentration of 1.25×10^4 cell/mL. […]

[4] = tested on: Trypanosoma brucei Lister 427 VSG221 with APOL1 G1 recombinant protein; test: APOL1 G1 trypanosome cell rescue assay (Example B5); details: geometric mean of at least 2 assay runs, † = single assay run
Experimental: as §1, §2, §3, §4

[5] = tested on: Trypanosoma brucei Lister 427 VSG221 with APOL1 G2 recombinant protein; test: APOL1 G2 trypanosome cell rescue assay (Example B5); details: geometric mean of at least 2 assay runs, † = single assay run
Experimental: as §1, §2, §3, §4

[6] = Homo sapiens, HEK293, HEK293 overexpressing APOL1 G2
[7] = Homo sapiens, HEK293, HEK293 clonal line overexpressing APOL1 G1
[8] = Trypanosoma brucei, 20 h, read-out: APOL1 G0 Trypanosome Rescue EC50, Trypanosoma brucei Lister 427 VSG221 with APOL1 G0 recombinant protein, 20 hours, CellTiter-Glo
[9] = Trypanosoma brucei, 20 h, read-out: APOL1 G1 Trypanosome Rescue EC50, Trypanosoma brucei Lister 427 VSG221 with APOL1 G1 recombinant protein, 20 hours, CellTiter-Glo
[10] = Trypanosoma brucei, 20 h, read-out: APOL1 G2 Trypanosome Rescue EC50, Trypanosoma brucei Lister 427 VSG221 with APOL1 G2 recombinant protein, 20 hours, CellTiter-Glo
[11] = read-out: APOL1 G1 Trypanosome Rescue EC50, Trypanosoma brucei Lister 427 VSG221 with APOL1 G1 recombinant protein, 20 hours, CellTiter-Glo

Row | SMILES | EC50 [1, 6] | EC50 [2, 7] | EC50 [3, 8] | EC50 [4, 9] | EC50 [5, 10] | EC50 ([1]; HEK293 overexpressing APOL1 G2) | EC50 ([2]; HEK293 clonal line overexpressing APOL1 G1) | EC50 [4, 11] | EC50 ([3]; read-out: APOL1 G0 Trypanosome Rescue EC50, Trypanosoma brucei Lister 427 VSG221 with APOL1 G0 recombinant protein, 20 hours, CellTiter-Glo) | EC50 ([5]; read-out: APOL1 G2 Trypanosome Rescue EC50, Trypanosoma brucei Lister 427 VSG221 with APOL1 G2 recombinant protein, 20 hours, CellTiter-Glo)
1 | C[C@]1(O)C[C@@H](N2C(=O)CCc3cc(OCCN4CCC5(CC4)C(=O)Nc4c(I)cc(Cl)cc45)cnc32)C1 [Compound 329, 5-chloro-7-iodo-1′-[2-({7-oxo-8-[(cis)-3-hydroxy-3-methylcyclobutyl]-5,6,7,8-tetrahydro-1,8-naphthyridin-3-yl}oxy)ethyl]-1,2-dihydrospiro[indole-3,4′-piperidin]-2-one] | 56.9 nM | 96.1 nM | 199 nM | 240 nM | 67.3 nM |  |  |  |  | 
2 | C[C@]1(O)C[C@@H](n2c(=O)n(CO)c3cc(OCCN4CCC5(CC4)C(=O)Nc4ccc(C#N)cc45)cc(C(F)(F)F)c32)C1 [Compound 469, 1′-(2-{[3-(hydroxymethyl)-2-oxo-1-[(cis)-3-hydroxy-3-methylcyclobutyl]-7-(trifluoromethyl)-2,3-dihydro-1H-1,3-benzodiazol-5-yl]oxy}ethyl)-2-oxo-1,2-dihydrospiro[indole-3,4′-piperidine]-5-carbonitrile] | 19.9 nM | 48.7 nM | 9.76 nM | 15.5 nM | 5.33 nM |  |  |  |  | 
3 | CC(=O)c1ncc(OCCN2CCC3(CC2)C(=O)Nc2ccc(C#N)cc23)cc1C(F)(F)F [Compound 298, 1′-(2-{[6-acetyl-5-(trifluoromethyl)pyridin-3-yl]oxy}ethyl)-2-oxo-1,2-dihydrospiro[indole-3,4′-piperidine]-5-carbonitrile] | 81.8 nM | 218 nM | 119 nM | 156 nM | 56.6 nM |  |  |  |  | 
4 | CC1(O)CC(CN2C(=O)CCc3cc(OCCN4CCC5(CC4)C(=O)Nc4ccc(Cl)cc45)cnc32)C1 (single isomer, unassigned) [Compound 313, 5-chloro-1′-{2-[(7-oxo-8-{[(cis) or (trans)-3-hydroxy-3-methylcyclobutyl]methyl}-5,6,7,8-tetrahydro-1,8-naphthyridin-3-yl)oxy]ethyl}-1,2-dihydrospiro[indole-3,4′-piperidin]-2-one] |  |  | 54.5 nM |  | 20.2 nM | 63.3 nM | 135 nM | 71.8 nM |  | 
5 | O=C1CCc2cc(OCCN3CCC4(CC3)C(=O)Nc3ccc(C(F)F)cc34)cnc2N1C1CC(CO)C1 (single isomer, unassigned) [Compound 309, 5-(difluoromethyl)-1′-[2-({7-oxo-8-[(cis) or (trans)-3-(hydroxymethyl)cyclobutyl]-5,6,7,8-tetrahydro-1,8-naphthyridin-3-yl}oxy)ethyl]-1,2-dihydrospiro[indole-3,4′-piperidin]-2-one] | 55.9 nM | 134 nM | 58.2 nM | 70.6 nM | 23.4 nM |  |  |  |  | 
6 | O=C1Nc2ccc(Cl)cc2C12CCN(CCOc1cnc3c(N4CC(O)C4)ncnc3c1)CC2 [Compound 366, 5-chloro-1′-(2-{[4-(3-hydroxyazetidin-1-yl)pyrido[3,2-d]pyrimidin-7-yl]oxy}ethyl)-1,2-dihydrospiro[indole-3,4′-piperidin]-2-one] | 80 nM | 136 nM | 66.4 nM | 87.3 nM | 32.4 nM |  |  |  |  | 
7 | CC(=O)c1ncc(OCCN2CCC3(CC2)C(=O)Nc2ccc(Cl)cc23)cc1C(F)(F)F [Compound 294, 1′-(2-{[6-acetyl-5-(trifluoromethyl)pyridin-3-yl]oxy}ethyl)-5-chloro-1,2-dihydrospiro[indole-3,4′-piperidin]-2-one] | 23.3 nM | 65.6 nM | 61.9 nM | 89 nM | 21.4 nM |  |  |  |  | 
8 | O=C(c1ccc(OCCN2CCC3(CC2)C(=O)N(CCO)c2ccc(Cl)cc23)cc1C(F)(F)F)N1CCS(=O)(=O)CC1 [Compound 271, 4-(4-{2-[5-chloro-1-(2-hydroxyethyl)-2-oxo-1,2-dihydrospiro[indole-3,4′-piperidin]-1′-yl]ethoxy}-2-(trifluoromethyl)benzoyl)-1λ^6-thiomorpholine-1,1-dione] | 152 nM | 340 nM | 51 nM | 50.7 nM | 15.9 nM |  |  |  |  | 
9 | CC1(O)CC(c2ncc(OCCN3CCC4(CC3)C(=O)Nc3ccc(Cl)cc34)cn2)C1 (single isomer, unassigned) [Compound 392, 5-chloro-1′-[2-({2-[(trans) or (cis)-3-hydroxy-3-methylcyclobutyl)pyrimidin-5-yl}oxy)ethyl]-1,2-dihydrospiro[indole-3,4′-piperidin]-2-one] |  | 89.9 nM |  |  |  | 27.1 nM |  | 79.4 nM | 70 nM | 28.5 nM
10 | C[C@]1(O)C[C@@H](n2c(=O)n(CO)c3cc(OCCN4CCC5(CC4)C(=O)Nc4ccc(Cl)cc45)cc(C(F)(F)F)c32)C1 [Compound 467, 5-chloro-1′-(2-{[3-(hydroxymethyl)-2-oxo-1-[(cis)-3-hydroxy-3-methylcyclobutyl]-7-(trifluoromethyl)-2,3-dihydro-1H-1,3-benzodiazol-5-yl]oxy}ethyl)-1,2-dihydrospiro[indole-3,4′-piperidin]-2-one] | 4.74 nM | 14.3 nM | 3.74 nM | 6.03 nM | 2.24 nM |  |  |  |  | 
